Here are results for 2 molecules from patent publication US6517871B1, “Bioenhanced formulations comprising eprosartan in oral solid dosage form” (SmithKline Beecham Corporation, priority 1998, dated 2003).

One data set is described as follows: clinical. The following applies: human, in vivo. The source says: Eprosartan is an amphiphilic molecule containing two acidic (allylic carboxylic acid and phenylic carboxylic acid) and one basic (imidazole) functional groups. At lower pH (below 2) the imidazole nitrogen will be protonated (form ii). As the pH increases, the allylic carboxylic group will be deprotonated (form iii). […] As the pH increases further, the phenylic carboxylic group will be depronated (form iv) followed by the deprotonation of the protonated imidazole group (form v). […] According to the pH-partitioning theory of absorption, only the unionized species (form ii) or the ion-neutral species (form iii) will be absorbed by passive diffusion. […] The time to maximum concentration is between 1 to 2.5 hours in fasted state and 2.5-4 hours in fed state. […] Additionally, since the commercial form of the drug is as its mesylate, which becomes dihydrated during the formulation process, high dose tablets (e.g., 600 mg tablets weigh 1,200.0 mg) may be difficult to swallow.

Data set [1] is described as follows: pH-solubility profiles (FIG. 2). It counts as physicochemical. To be noted: pH >4.0 to 5.5, where the enteric coat starts to release.

Where a name gives a salt, the structure may show the parent alone.

Regarding `CCCCc1ncc(/C=C(\Cc2cccs2)C(=O)O)n1Cc1ccc(C(=O)O)cc1` [eprosartan, (E)-α-[2-n-butyl-1-[(4-carboxyphenyl)methyl]-1H-imidazol-5-yl]methylene-2-thiophenepropionic acid], in “clinical”, the mean absolute bioavailability result is “approximately 13%” and the “time to maximum concentration” value lay within 1 to 2.5 h. Moreover, the “drug solubility at initiation pHs” value in data set [1] was “negligible”.
Consider `CCCCc1ncc(/C=C(\Cc2cccs2)C(=O)O)n1Cc1ccc(C(=O)O)cc1` [eprosartan mesylate, (E)-α-[2-n-Butyl-1-[(4-carboxyphenyl)methyl]-1H-imidazol-5-yl]methylene-2-thiophenepropionic acid monomethanesulfonate], for which the bioavailability (usually the share of a dose that reaches the circulation, judged against a reference dose that is usually intravenous) in the data set “clinical” was approximately 13%.
